The record followed here is ChEMBL document CHEMBL3853283, “Nitric Oxide Inhibitory Meroterpenoids from the Fungus Penicillium purpurogenum MHZ 111” (J Nat Prod, 2016).

Series [1] has as its system BV-2 microglial cells (Mus musculus). Put plainly: Antineuroinflammatory activity in mouse BV2 cells assessed as inhibition of LPS-induced nitric oxide production at 50 uM preincubated for 10 mins followed by LPS stimulation for 24 hrs by Griess assay. (In general: Griess reagent forms a coloured azo dye with nitrite.)
Series [2] in a line: Antineuroinflammatory activity in […] of LPS-induced nitric oxide production preincubated for 10 mins followed by LPS stimulation for 24 hrs by Griess assay. The following applies: BV-2. It counts as functional, cell-based.
The nature of series [3]: Cytotoxicity against […] cells assessed as decrease in cell viability up to 100 uM preincubated for 10 mins followed by LPS stimulation for 24 hrs by MTT assay. It counts as toxicity, cell-based. The following applies: bv-2, 24 h.

Molecules are shown by their SMILES.

Usually inhibition stands for the share of the control response that was lost under treatment. `CC(=O)O[C@@H]1c2c3c(cc(O)c2C(=O)OC1C)O[C@@]1(C)[C@@H](O)C[C@H]2C(C)(C)C(=O)C=C[C@]2(C)[C@@H]1C3` (stereo partly drawn): the inhibition at 50 µM in series [1] was under 50%.

Turning to `CC1=C2CC(=O)OC(C)(C)C2=CC[C@@]2(C)[C@H]1C[C@@]1(C)C(=O)[C@@]3(C)O[C@]14COC(=O)[C@@]42C3=O`, the inhibition at 50 µM in series [1] is under 50%.

With `CC1Cc2c3c(cc(O)c2C(=O)O1)O[C@@]1(C)[C@@H](O)C[C@H]2C(C)(C)C(=O)C=C[C@]2(C)[C@@H]1C3` (stereo partly drawn), the inhibition at 50 µM in series [1] is under 50%.

Broadly, the IC50 is the concentration that inhibits the measured activity by half. Turning to `COc1ccc2c(c1)c(CC(=O)O)c(C)n2C(=O)c1ccc(Cl)cc1` [INDOMETHACIN], the half-inhibitory concentration (IC50) in series [2] was determined as 34.5 µM.

As to `C[C@@H]1O[C@@H]2OC(=O)[C@]3(C)C[C@@H]4[C@](C)(C(=O)C=C5C(=CC(=O)OC5(C)C)[C@@]45CO5)[C@H](C1=O)[C@H]23` [BERKELEYACETAL C], the IC50 in series [2] amounted to 0.8 µM. For the same compound, the Activity result in series [3] is “Non-Toxic”.

For the compound `COC(=O)[C@]12C(=O)[C@@](C)(O)C(=O)[C@](C)(C[C@H]3C(C)=C4CC(=O)OC(C)(C)C4=CC[C@@]31C)[C@]21CO1`, the inhibition at 50 µM in series [1] is under 50%.

On to `C[C@H]1O[C@@H]2OC(=O)[C@]3(C)CC4=C(CO)C5=C(CC(=O)[C@]4(C)[C@H](C1=O)[C@H]23)C(C)(C)OC(=O)C5`, for which the inhibition at 50 µM in series [1] was under 50%.
